Laboratory results as given in paper PMC3919815, “Anti-Tumor Effects of Novel 5-O-Acyl Plumbagins Based on the Inhibition of Mammalian DNA Replicative Polymerase Activity” (PLoS ONE, 2014).

Columns and labels:
[1] = system: HT-29 solid tumors; assay: In vivo anti-tumor assay; parameters: species or system nude mice; conditions: at 40 days; 5 mg/kg subcutaneously in PBS, versus PBS control; n = 6
Source text: Male BALB/c nu/nu mice at 5 week of age (18 g) were purchased from Japan SLC, Inc. (Shizuoka, Japan). Mice receiving standard laboratory chow and water ad libitum were acclimatized for 1 week before inoculation with cancer cells. For in vivo experiments, human colon HT-29 cells (1×10^7 cells/mouse) were subcutaneously injected into nude mice. Mice bearing solid tumors that had grown to approximately 100 mm^3 in volume (tumor volume = length×width×height) at 12 days after implantation were used for the assessment of anti-tumor effects. They were divided randomly into five groups (n = 6/group). One of the five groups was a control group injected with 0.1 mL of phosphate buffered saline (PBS) alone, and other groups were injected with vitamin K3 (3), juglone (4), C18:1-acyl juglone (5f), and C18:1-acyl plumbagin (2f) dissolved in PBS at a dose of 5 mg/kg. The above administrations all took place between days 12–39 subsequent to implantation. All mice were injected subcutaneously 14 times at […] with the compound and PBS alone (control). Tumor growth was measured at 1-day intervals for 40 days after implantation. At the end of the in vivo anti-tumor assay, some mice treated with the test compounds and PBS were independently examined to observe major organs such as lung, heart, spleen, stomach, liver, pancreas, kidney, intestine, and brain.

[2] = Stability under basic conditions (Triton B, UV-vis); format: physicochemical; conditions: 1 equivalent Triton B in 1,4-dioxane and MeOH, 1.1×10^−3 M, 25°C
Method: A 2.2×10^−2 M solution of Triton B in MeOH was added to a 2.2×10^−2 M solution of each sample in 1,4-dioxane. Then, the mixture was diluted with 1,4-dioxane to a concentration of 1.1×10^−3 M. Then, the stability of each compound was monitored by UV-vis spectroscopy. UV-vis spectra were measured at 25°C on a UV-vis spectrophotometer (JASCO V-650, Tokyo, Japan). For comparison, UV-vis spectra of 1.1×10^−3 M solution of C18:1-acyl plumbagin (2f), and C18:1-acyl juglone (5f) in 1,4-dioxane and MeOH (19/1, v/v) were measured.

[3] = system: pol α; parameters: method as in PMID 10942777; conditions: cited from earlier work
[4] = system: pol δ; parameters: method as in PMID 10942777; conditions: cited from earlier work
[5] = system: pol ε; parameters: method as in PMID 10942777; conditions: cited from earlier work
[6] = target: T1, Human pol κ (Homo sapiens, UniProt Q9UBT6); assay: DNA polymerase activity inhibition; format: biochemical; conditions: 10 µM compound; Fig. 4
T1 construct: A truncated form of pol κ (residues 1–560) with 6× His-tags attached at the C-terminus; 6× His (C); made in house; host or cells: E. coli
T1 sequence (Q9UBT6 1-560): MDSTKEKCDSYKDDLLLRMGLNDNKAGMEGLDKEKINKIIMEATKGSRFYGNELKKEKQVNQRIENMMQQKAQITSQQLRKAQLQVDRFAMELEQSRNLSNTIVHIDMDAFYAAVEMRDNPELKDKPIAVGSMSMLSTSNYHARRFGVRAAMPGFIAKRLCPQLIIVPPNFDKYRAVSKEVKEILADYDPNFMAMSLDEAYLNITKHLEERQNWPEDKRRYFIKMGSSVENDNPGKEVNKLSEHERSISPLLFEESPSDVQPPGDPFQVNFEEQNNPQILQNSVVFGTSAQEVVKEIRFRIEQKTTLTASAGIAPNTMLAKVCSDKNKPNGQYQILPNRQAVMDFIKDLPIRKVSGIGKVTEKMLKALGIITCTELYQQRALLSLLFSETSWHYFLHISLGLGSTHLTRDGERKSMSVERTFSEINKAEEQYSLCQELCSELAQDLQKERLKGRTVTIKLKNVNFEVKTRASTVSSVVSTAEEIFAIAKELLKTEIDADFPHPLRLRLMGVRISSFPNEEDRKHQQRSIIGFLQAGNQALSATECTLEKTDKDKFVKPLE
Source text: (§1) Pol α was purified from calf thymus by immunoaffinity column chromatography as described by Tamai et al.. Recombinant rat pol β was purified from Escherichia coli JMpβ5 as described by Date et al.. The human pol γ catalytic gene was cloned into pFastBac. Histidine-tagged enzyme was expressed using the BACTO-BAC HT Baculovirus Expression System according to the manufacturer's instructions (Life Technologies, Frederick, MD, USA) and purified using ProBound resin (Invitrogen Japan, Tokyo Japan). Human pols δ and ε were purified by nuclear fractionation of human peripheral blood cancer cells (Molt-4) using the second subunit of pol δ and ε-conjugated affinity column chromatography, respectively. A truncated form of human pol η (residues 1–511) tagged with His6 at its C-terminal was expressed in E. coli cells and purified as described by Kusumoto et al.. A recombinant mouse pol ι tagged with His6 at its C-terminal was expressed and purified by Ni–NTA column chromatography. A truncated form of pol κ (residues 1–560) with 6× His-tags attached at the C-terminus was overexpressed in E. coli and purified as described by Ohashi et al.. Recombinant human His-pol λ was overexpressed and purified according to a method described by Shimazaki et al.. Recombinant human His-pol μ was overexpressed in E. coli BL21 and purified using Glutathione Sepharose 4B (GE Healthcare Bio-Science Corp., Piscataway, NJ, USA) column chromatography according to the method for pol λ preparation by Shimazaki et al.. Pol α from a higher plant, cauliflower, was purified from the inflorescence structure according to the methods outlined by Sakaguchi et al.. Recombinant rice (Oryza sativa L. cv. Nipponbare) pol λ tagged with His6 at the C-terminus was expressed in E. coli and purified as described by Uchiyama et al.. Calf TdT, Taq pol, T4 pol, T7 RNA polymerase, and T4 polynucleotide kinase were purchased from Takara Bio Inc. (Kyoto, Japan). The Klenow fragment of pol I from E. coli was purchased from Worthington Biochemical Corp. (Freehold, NJ, USA). Bovine pancreas deoxyribonuclease I was obtained from Stratagene Cloning Systems (La Jolla, CA, USA).
(§2) The reaction mixtures for calf pol α, rat pol β, plant pol α, and prokaryotic pols have been described previously, [35]; those for pol γ as well as pols δ and ε were previously described by Umeda et al. and Ogawa et al., respectively. Those for pols η, ι, and κ were the same as for pol α, and those for pols λ and μ were the same as for pol β. For the pol reactions, poly(dA)/oligo(dT)18 (A/T, 2/1) and dTTP were used as the DNA template-primer substrate and nucleotide (dNTP; 2′-deoxynucleoside-5′-triphosphate) substrate, respectively. For the TdT reactions, oligo(dT)18 (3′-OH) and dTTP were used as the DNA primer substrate and nucleotide substrate, respectively.
(§3) The chemically synthesized 5-O-acyl plumbagins (2a–j) were dissolved in distilled dimethyl sulfoxide (DMSO) to various concentrations and sonicated for 30 s. Subsequently, 4 µL aliquots were mixed with 16 µL of each enzyme (0.05 units) in 50 mM Tris-HCl at pH 7.5, containing 1 mM dithiothreitol, 50% glycerol (by vol), and 0.1 mM ethylenediaminetetraacetic acid and held at 0°C for 10 min. These inhibitor-enzyme mixtures in 8 µL volumes were next added to 16 µL of enzyme standard reaction mixture and incubated at 37°C for 60 min, except for Taq pol, which was incubated at 74°C for 60 min. Activity without inhibitor was considered 100%, and the relative activity was determined for each inhibitor concentration. One unit of pol activity was defined as the amount of each enzyme that catalyzed the incorporation of 1 nmol dTTP into synthetic DNA template primers in 60 min, at 37°C, and under standard reaction conditions, [35].

[7] = target: T2, Human pol λ (Homo sapiens, UniProt Q9UGP5); assay: DNA polymerase activity inhibition; format: biochemical; conditions: 10 µM compound; Fig. 4
T2 construct: His tag; made in house
T2 sequence (Q9UGP5 1-575): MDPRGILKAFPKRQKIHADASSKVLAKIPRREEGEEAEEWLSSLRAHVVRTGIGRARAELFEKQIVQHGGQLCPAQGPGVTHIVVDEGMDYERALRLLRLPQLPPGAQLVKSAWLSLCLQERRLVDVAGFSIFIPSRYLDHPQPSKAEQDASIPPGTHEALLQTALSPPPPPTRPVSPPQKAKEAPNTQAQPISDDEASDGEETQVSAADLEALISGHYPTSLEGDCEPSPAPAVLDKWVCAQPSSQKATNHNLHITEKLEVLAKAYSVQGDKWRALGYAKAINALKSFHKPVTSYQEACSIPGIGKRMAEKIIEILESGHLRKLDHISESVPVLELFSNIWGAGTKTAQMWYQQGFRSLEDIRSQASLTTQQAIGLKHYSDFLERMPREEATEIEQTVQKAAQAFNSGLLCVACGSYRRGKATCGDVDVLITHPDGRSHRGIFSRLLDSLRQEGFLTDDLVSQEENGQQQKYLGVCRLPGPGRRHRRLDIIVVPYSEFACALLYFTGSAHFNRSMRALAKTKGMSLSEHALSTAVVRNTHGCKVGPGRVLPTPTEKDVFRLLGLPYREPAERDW
Source text: as §1, §2, §3

[8] = system: HCT116 (colon cancer); assay: Cancer cell viability, MTT assay; format: cell-based, human; conditions: 48 h, MTT; for suppression of cell proliferation: Fig. 5
Method: The following human cancer cell lines were obtained from the American Type Culture Collection (Manassas, VA, USA): lung (A549), prostate (DU145 and PC3), colon (HCT116 and HT-29), cervix (HeLa), hepatocellular liver (HepG2), breast (MCF-7), and pancreatic cancer (PANC-1). These cells were cultured in RPMI 1640 medium supplemented with 10% fetal bovine serum, penicillin (100 units/mL), streptomycin (100 µg/mL), and 1.6 mg/mL NaHCO3 at 37°C in a humid atmosphere of 5% CO2/95% air. For the cell viability assay, cells were seeded at 1×10^3 cells/well in a 96-well microplate with various concentrations of the test compounds, and incubated for 48 h. MTT (3-(4,5-dimethylthiazol-2-yl)-2,5-diphenyl tetrazolium bromide) solution was added to a final concentration 0.6 mg/mL in Milli-Q purified water for 2 h, after which time the medium was discarded and the cells lysed in DMSO. A540 was then measured in a microplate reader (Model 680, Bio-Rad Laboratories, Hercules, CA, USA).

[9] = target: T3, Calf pol α (Bos taurus, UniProt A0AAA9TD94); assay: DNA polymerase activity inhibition; format: biochemical; conditions: 10 µM compound; Fig. 4
T3 construct: from tissue; host or cells: calf thymus
Source text: as §1, §2, §3

[10] = system: calf thymus dsDNA; assay: Thermal transition of dsDNA; format: binding; conditions: 15 µM compound (positive control); 6 µg/mL DNA, 0.1 M Na-phosphate buffer pH 7.0
Method: Thermal transition profiles of dsDNA to single-stranded DNA with or without test compound were obtained with a spectrophotometer (UV-2500; Shimadzu Corp., Kyoto, Japan) equipped with a thermoelectric cell holder according to previous methods. Calf thymus DNA (6 µg/mL) was dissolved in 0.1 M sodium phosphate buffer (pH 7.0) containing 1% DMSO. The solution temperature was equilibrated to 75°C for 10 min, and then increased by 1°C at 2-min intervals for each measurement point. Any change in the absorbance (260 nm) of the compound itself at each temperature point was automatically subtracted from that of DNA plus the compound in the spectrophotometer.

T3 sequence (A0AAA9TD94 1-1441): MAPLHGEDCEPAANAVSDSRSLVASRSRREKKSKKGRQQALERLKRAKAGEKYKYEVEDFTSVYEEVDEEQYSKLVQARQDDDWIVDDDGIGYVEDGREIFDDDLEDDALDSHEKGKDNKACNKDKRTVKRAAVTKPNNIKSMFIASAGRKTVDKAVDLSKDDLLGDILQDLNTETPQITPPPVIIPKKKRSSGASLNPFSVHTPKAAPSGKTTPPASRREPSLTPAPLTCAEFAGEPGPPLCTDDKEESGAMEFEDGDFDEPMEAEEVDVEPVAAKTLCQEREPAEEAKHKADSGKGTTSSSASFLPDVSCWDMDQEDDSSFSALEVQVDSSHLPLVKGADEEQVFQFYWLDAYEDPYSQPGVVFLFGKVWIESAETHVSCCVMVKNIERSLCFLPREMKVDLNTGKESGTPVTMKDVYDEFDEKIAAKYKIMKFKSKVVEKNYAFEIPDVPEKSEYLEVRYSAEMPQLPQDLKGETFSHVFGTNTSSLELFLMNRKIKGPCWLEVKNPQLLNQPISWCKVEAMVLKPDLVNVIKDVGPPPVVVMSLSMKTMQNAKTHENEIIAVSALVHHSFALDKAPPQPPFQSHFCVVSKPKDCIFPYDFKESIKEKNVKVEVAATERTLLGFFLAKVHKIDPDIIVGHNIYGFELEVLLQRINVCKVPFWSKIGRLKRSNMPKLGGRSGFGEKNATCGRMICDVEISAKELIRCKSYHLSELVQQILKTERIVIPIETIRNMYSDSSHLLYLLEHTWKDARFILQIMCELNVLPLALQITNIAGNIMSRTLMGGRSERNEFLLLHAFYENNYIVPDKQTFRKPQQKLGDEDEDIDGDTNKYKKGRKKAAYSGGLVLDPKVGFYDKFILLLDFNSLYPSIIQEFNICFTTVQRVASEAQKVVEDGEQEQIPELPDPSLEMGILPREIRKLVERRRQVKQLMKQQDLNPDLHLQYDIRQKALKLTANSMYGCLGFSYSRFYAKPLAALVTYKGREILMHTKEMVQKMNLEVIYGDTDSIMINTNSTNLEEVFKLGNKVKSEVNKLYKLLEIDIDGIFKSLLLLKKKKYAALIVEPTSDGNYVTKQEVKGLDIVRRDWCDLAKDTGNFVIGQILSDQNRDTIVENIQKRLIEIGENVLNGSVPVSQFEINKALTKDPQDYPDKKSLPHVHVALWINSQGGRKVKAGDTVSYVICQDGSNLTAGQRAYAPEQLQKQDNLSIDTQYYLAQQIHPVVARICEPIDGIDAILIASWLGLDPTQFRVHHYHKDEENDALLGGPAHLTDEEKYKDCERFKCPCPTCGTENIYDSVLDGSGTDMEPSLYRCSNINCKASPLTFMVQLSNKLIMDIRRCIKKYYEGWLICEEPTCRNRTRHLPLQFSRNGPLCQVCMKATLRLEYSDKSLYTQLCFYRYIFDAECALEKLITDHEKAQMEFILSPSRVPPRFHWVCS

O=C1C=CC(=O)c2c(O)cccc21 [compound 4, 5-hydroxy-1,4-naphthoquinone]
decreased rates of tumor volume [1]: 9.2%

CCCCCCCC/C=C\CCCCCCCC(=O)Oc1cccc2c1C(=O)C=CC2=O [5f, reference compound]
stability under basic conditions (UV spectra) [2]: readily decomposes under basic conditions
decreased rates of tumor volume [1]: 10.3%

C[C@@]1(CO)[C@H](O)CC[C@@]2(C)[C@H]1CC[C@H]1C[C@@H]3C[C@@]12CC[C@]3(O)CO [aphidicolin]
IC50 [3]: 20 µM
IC50 [4]: 13 µM
IC50 [5]: 16 µM

CC/C=C\C/C=C\C/C=C\C/C=C\C/C=C\C/C=C\CCC(=O)Oc1cccc2c1C(=O)C=C(C)C2=O [2j, 5-O-docosahexaenoyloxy-2-methyl-1,4-naphthoquinone]
inhibition of pol κ relative activity (in words) [6]: strongest inhibitor
inhibition of pol λ relative activity (in words) [7]: strongest inhibitor

CC1=CC(=O)c2ccccc2C1=O [compound 3, 2-methyl-1,4-naphthoquinone]
decreased rates of tumor volume [1]: 7.0%

CC(=O)Oc1cccc2c1C(=O)C=C(C)C2=O [2a, 5-O-acetoxy-2-methyl-1,4-naphthoquinone]
melting point: 118 to 124 °C
inhibition of pol κ relative activity (in words) [6]: hardly inhibited
inhibition of pol λ relative activity (in words) [7]: hardly inhibited

CCCCC/C=C\C/C=C\CCCCCCCC(=O)Oc1cccc2c1C(=O)C=C(C)C2=O [2g, 5-O-linoleoyloxy-2-methyl-1,4-naphthoquinone]
cell proliferation rate ([8]; 10 µM, control = 100%): < 60%

CCCCCCCCCCCCCCCCCC(=O)Oc1cccc2c1C(=O)C=C(C)C2=O [2e, 5-O-octadecanoyloxy-2-methyl-1,4-naphthoquinone]
melting point: 67 to 70 °C
inhibition of pol α relative activity (in words) [9]: did not inhibit

CC1=CC(=O)c2c(O)cccc2C1=O [compound 1, 5-hydroxy-2-methyl-1,4-naphthoquinone, reference compound]
suppression of cell proliferation ([8]; 10 µM): did not
suppression of cell proliferation ([8]; 100 µM): approximately 50%

CC[n+]1c(-c2ccccc2)c2cc(N)ccc2c2ccc(N)cc21 [EtBr, ethidium bromide]
thermal transition (Tm) of dsDNA from 75 to 90°C [10]: an obvious thermal transition was observed
